According to the NIST ThermoML archive (doi:10.1016/j.jct.2018.08.013):
Where “and” joins values, the source holds several entries; their conditions need not be identical. Equal entries are not always repeated.

Test: specific heat capacity at constant pressure; xn = mol fraction of the nth substance listed
Conditions: 100 kPa, Crystal of intercomponent compound 1, x2 = 0.486

[Te] [tellurium] + [Ga]
Conditions | specific heat capacity
241.59 K, relaxation calorimetry | 244.22 J/K/kg
241.78 K, relaxation calorimetry | 242.8 J/K/kg
241.86 K, relaxation calorimetry | 243.61 J/K/kg
241.89 K, relaxation calorimetry | 243.51 J/K/kg
245.93 K, relaxation calorimetry | 243.46 J/K/kg
245.97 K, relaxation calorimetry | 243.31 J/K/kg
246.62 K, relaxation calorimetry | 244.93 J/K/kg
246.79 K, relaxation calorimetry | 243.87 J/K/kg
248.47 K, relaxation calorimetry | 241.79 J/K/kg
248.52 K, relaxation calorimetry | 242.09 J/K/kg
248.53 K, relaxation calorimetry | 241.99 J/K/kg
249.9 K, relaxation calorimetry | 242.85 J/K/kg
249.93 K, relaxation calorimetry | 242.9 J/K/kg
251.64 K, relaxation calorimetry | 245.64 J/K/kg
251.81 K, relaxation calorimetry | 244.63 J/K/kg
253.96 K, relaxation calorimetry | 242.96 J/K/kg
254 K, relaxation calorimetry | 243.06 J/K/kg
256.38 K, relaxation calorimetry | 242.14 J/K/kg
256.44 K, relaxation calorimetry | 242.35 J/K/kg and 242.65 J/K/kg
256.66 K, relaxation calorimetry | 246.25 J/K/kg
256.83 K, relaxation calorimetry | 245.08 J/K/kg
258.12 K, relaxation calorimetry | 244.12 J/K/kg
258.16 K, relaxation calorimetry | 244.02 J/K/kg
260.51 K, Extra sensitive DSC | 245.54 J/K/kg
261.66 K, relaxation calorimetry | 248.07 J/K/kg
261.82 K, relaxation calorimetry | 246.86 J/K/kg
262.18 K, relaxation calorimetry | 245.13 J/K/kg
262.22 K, relaxation calorimetry | 244.93 J/K/kg
263.12 K, Extra sensitive DSC | 246.4 J/K/kg
264.28 K, relaxation calorimetry | 243.97 J/K/kg
264.35 K, relaxation calorimetry | 244.43 J/K/kg and 244.17 J/K/kg
265.73 K, Extra sensitive DSC | 246.3 J/K/kg
266.13 K, relaxation calorimetry | 246.15 J/K/kg
266.19 K, relaxation calorimetry | 245.59 J/K/kg
266.68 K, relaxation calorimetry | 246.55 J/K/kg
266.71 K, relaxation calorimetry | 246.55 J/K/kg
266.72 K, relaxation calorimetry | 246.4 J/K/kg
268.33 K, Extra sensitive DSC | 246.81 J/K/kg
270.07 K, Extra sensitive DSC | 246.96 J/K/kg
270.3 K, relaxation calorimetry | 248.78 J/K/kg
270.35 K, relaxation calorimetry | 247.67 J/K/kg
270.64 K, relaxation calorimetry | 247.06 J/K/kg
270.65 K, relaxation calorimetry | 246.66 J/K/kg
271.54 K, relaxation calorimetry | 248.83 J/K/kg
271.73 K, relaxation calorimetry | 246.76 J/K/kg
271.83 K, relaxation calorimetry | 246.35 J/K/kg
272.68 K, Extra sensitive DSC | 247.06 J/K/kg
272.79 K, relaxation calorimetry | 247.62 J/K/kg
272.8 K, relaxation calorimetry | 247.31 J/K/kg
273.54 K, relaxation calorimetry | 249.19 J/K/kg
273.74 K, relaxation calorimetry | 246.71 J/K/kg
273.84 K, relaxation calorimetry | 246.55 J/K/kg
275.28 K, Extra sensitive DSC | 247.26 J/K/kg
275.55 K, relaxation calorimetry | 249.14 J/K/kg
275.75 K, relaxation calorimetry | 246.76 J/K/kg
275.85 K, relaxation calorimetry | 246.5 J/K/kg
277.54 K, relaxation calorimetry | 249.29 J/K/kg
277.75 K, relaxation calorimetry | 246.76 J/K/kg
277.85 K, relaxation calorimetry | 246.55 J/K/kg
277.88 K, Extra sensitive DSC | 247.72 J/K/kg
279.54 K, relaxation calorimetry | 249.09 J/K/kg
279.76 K, relaxation calorimetry | 246.5 J/K/kg
279.87 K, relaxation calorimetry | 246.45 J/K/kg
280.49 K, Extra sensitive DSC | 247.87 J/K/kg
281.52 K, relaxation calorimetry | 249.09 J/K/kg
281.76 K, relaxation calorimetry | 246.25 J/K/kg
281.87 K, relaxation calorimetry | 246.1 J/K/kg
283.09 K, Extra sensitive DSC | 248.33 J/K/kg
283.53 K, relaxation calorimetry | 248.99 J/K/kg
283.78 K, relaxation calorimetry | 246.15 J/K/kg
283.87 K, relaxation calorimetry | 246.66 J/K/kg
285.53 K, relaxation calorimetry | 249.44 J/K/kg
285.7 K, Extra sensitive DSC | 248.58 J/K/kg
285.78 K, relaxation calorimetry | 246.4 J/K/kg
285.88 K, relaxation calorimetry | 246.6 J/K/kg
287.54 K, relaxation calorimetry | 249.54 J/K/kg
287.78 K, relaxation calorimetry | 246.35 J/K/kg
287.89 K, relaxation calorimetry | 246.66 J/K/kg
288.3 K, Extra sensitive DSC | 248.89 J/K/kg
289.53 K, relaxation calorimetry | 249.65 J/K/kg
289.79 K, relaxation calorimetry | 246.55 J/K/kg
289.89 K, relaxation calorimetry | 246.86 J/K/kg
290.04 K, Extra sensitive DSC | 248.94 J/K/kg
291.53 K, relaxation calorimetry | 250.41 J/K/kg
291.8 K, relaxation calorimetry | 247.16 J/K/kg
291.9 K, relaxation calorimetry | 247.52 J/K/kg
292.64 K, Extra sensitive DSC | 249.09 J/K/kg
293.52 K, relaxation calorimetry | 251.32 J/K/kg
293.81 K, relaxation calorimetry | 248.68 J/K/kg
293.9 K, relaxation calorimetry | 248.89 J/K/kg
295.25 K, Extra sensitive DSC | 249.29 J/K/kg
295.51 K, relaxation calorimetry | 251.37 J/K/kg
295.84 K, relaxation calorimetry | 249.34 J/K/kg
295.91 K, relaxation calorimetry | 249.34 J/K/kg
297.52 K, relaxation calorimetry | 250.81 J/K/kg
297.83 K, relaxation calorimetry | 250.71 J/K/kg
297.85 K, Extra sensitive DSC | 249.75 J/K/kg
297.93 K, relaxation calorimetry | 248.68 J/K/kg
299.53 K, relaxation calorimetry | 250.25 J/K/kg
299.85 K, relaxation calorimetry | 250.15 J/K/kg
299.94 K, relaxation calorimetry | 248.63 J/K/kg
300.45 K, Extra sensitive DSC | 249.9 J/K/kg
301.54 K, relaxation calorimetry | 251.06 J/K/kg
301.87 K, relaxation calorimetry | 250.86 J/K/kg
301.95 K, relaxation calorimetry | 249.39 J/K/kg
303.06 K, Extra sensitive DSC | 250.51 J/K/kg
303.81 K, relaxation calorimetry | 250.56 J/K/kg
303.84 K, relaxation calorimetry | 252.33 J/K/kg
303.87 K, relaxation calorimetry | 250.51 J/K/kg
305.66 K, Extra sensitive DSC | 250.76 J/K/kg
307.4 K, Extra sensitive DSC | 250.81 J/K/kg
310 K, Extra sensitive DSC | 251.22 J/K/kg
312.6 K, Extra sensitive DSC | 251.42 J/K/kg
315.21 K, Extra sensitive DSC | 251.88 J/K/kg
317.81 K, Extra sensitive DSC | 251.93 J/K/kg
320.41 K, Extra sensitive DSC | 252.23 J/K/kg
323.02 K, Extra sensitive DSC | 252.48 J/K/kg
325.62 K, Extra sensitive DSC | 252.53 J/K/kg
327.36 K, Extra sensitive DSC | 252.74 J/K/kg
329.96 K, Extra sensitive DSC | 253.04 J/K/kg
332.56 K, Extra sensitive DSC | 253.19 J/K/kg
335.17 K, Extra sensitive DSC | 253.5 J/K/kg
337.77 K, Extra sensitive DSC | 253.7 J/K/kg
340.38 K, Extra sensitive DSC | 254 J/K/kg
342.98 K, Extra sensitive DSC | 254.41 J/K/kg
345.58 K, Extra sensitive DSC | 254.41 J/K/kg
348.19 K, Extra sensitive DSC | 254.76 J/K/kg
349.92 K, Extra sensitive DSC | 254.76 J/K/kg
352.53 K, Extra sensitive DSC | 254.66 J/K/kg
355.13 K, Extra sensitive DSC | 255.32 J/K/kg
356.87 K, Extra sensitive DSC | 255.07 J/K/kg
358.6 K, Extra sensitive DSC | 254.97 J/K/kg
